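Cultured in 96-well plates, cells were exposed to test compound for 48 hours across five concentrations. At the GI50, growth is halved.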 The source made the active and inactive calls. Cut-off read from the data, not from the text of the source: active = GI50 up to about 1.1 µM and inactive = higher.
Assays:
Experiment in all cases: NCI-60 cell line screen, 48 h
[1] = test system: SF-539
[2] = test system: HL-60
[3] = test system: M14
[4] = test system: UACC-62
[5] = test system: SF-268
[6] = test system: SNB-75
[7] = test system: SK-MEL-28
[8] = test system: HOP-62
[9] = test system: OVCAR-4
[10] = test system: OVCAR-3
[11] = test system: KM12
[12] = test system: NCI/ADR-RES
[13] = test system: LOX IMVI
[14] = test system: SW-620
[15] = test system: Malme-3M
[16] = test system: NCI-H23
[17] = test system: OVCAR-5
[18] = test system: HOP-92
[19] = test system: A498

Measured: GI50

CC1CC(C#N)=C2NCCCCN2C1=O (stereo not drawn)
inactive: [1] > 100 µM | [2] > 100 µM | [3] > 100 µM | [4] > 100 µM | [5] > 100 µM | [6] > 100 µM | [7] > 100 µM | [8] > 100 µM | [9] > 100 µM | [10] > 100 µM | [11] > 100 µM | [12] > 100 µM | [13] > 100 µM | [14] > 100 µM | [15] > 100 µM | [16] > 100 µM

O=C1CCCc2cc3c(cc21)CCC3C(=O)O (stereo not drawn)
inactive: [1] > 100 µM | [17] > 100 µM | [2] > 100 µM | [3] > 100 µM | [4] > 100 µM | [5] > 100 µM | [6] > 100 µM | [7] > 100 µM | [8] > 100 µM | [9] > 100 µM | [11] > 100 µM | [12] > 100 µM | [13] > 100 µM | [14] > 100 µM | [15] > 100 µM | [16] > 100 µM

CC1=C(C(=O)CC(=O)C(=O)Nc2ccccc2C)Sc2ccccc2N1
inactive: [1] > 93.3 µM | [17] > 100 µM | [2] > 60.5 µM | [3] > 100 µM | [4] > 100 µM | [5] > 67 µM | [6] > 53.8 µM | [7] > 100 µM | [8] > 100 µM | [9] > 100 µM | [10] > 100 µM | [11] > 100 µM | [18] > 67.9 µM | [13] > 42.4 µM | [14] > 39.3 µM | [15] > 100 µM | [19] > 100 µM | [16] > 100 µM

CCCC(=O)N(C)/N=N/c1ccc(C(=O)OCC)cc1
inactive: [1] > 100 µM | [17] > 100 µM | [2] > 100 µM | [3] > 100 µM | [4] > 100 µM | [5] > 100 µM | [6] 37.9 µM | [7] > 100 µM | [8] > 100 µM | [9] > 100 µM | [10] > 100 µM | [11] > 100 µM | [18] > 100 µM | [13] > 100 µM | [14] > 100 µM | [15] > 100 µM | [19] 81.7 µM | [16] > 100 µM

CN(c1ccccc1Cl)S(=O)(=O)c1ccc([N+](=O)[O-])cc1
inactive: [1] > 100 µM | [17] > 100 µM | [2] > 100 µM | [3] > 100 µM | [4] > 100 µM | [5] > 100 µM | [6] > 100 µM | [7] > 100 µM | [8] > 100 µM | [9] > 100 µM | [10] > 100 µM | [11] > 100 µM | [12] > 100 µM | [13] > 100 µM | [14] > 100 µM | [15] > 100 µM | [16] > 100 µM

CC[C@]1(Cc2ccc(OC)c(OC)c2)[C@@H]2C[C@@H](C(=O)OC)ON2O[C@H](OC2CCCC2(c2ccccc2)c2ccccc2)[C@@H]1OC(C)=O (stereo partly drawn)
inactive: [17] > 100 µM | [3] > 100 µM | [4] > 100 µM | [5] > 100 µM | [6] > 100 µM | [7] > 100 µM | [8] > 100 µM | [10] > 100 µM | [11] > 100 µM | [12] > 100 µM | [13] > 100 µM | [14] > 100 µM | [16] > 100 µM

From ChEMBL document CHEMBL1201862, “PubChem BioAssay data set” (2004)
